Reference: patent US10966944B2, “[2.2.2] bicyclic derivatives and methods of use” (ASE PHARMACEUTICALS, LLC, priority 2008, dated 2021)

How the values were obtained:
adult epilepsy patients [1] = test: EEG parameters before and after treatment (Example 2); type: in vivo, human; details: averaged, after treatment (before treatment: 197.7)
Source text: (§1) Main study parameters included efficiency criteria such as the number and severity of seizures, and safety criteria such as the clinical and laboratory tests. The complete examination included: • 1) Neurological exams. • 2) Computer-assisted tomography (CAT scan). • 3) MRI of the brain. • 4) General blood work: baseline before Sodium bicyclo-[2.2.2]-octane-2-carboxylate treatment, 2 weeks and 1.5 months after the beginning of the treatment. • 5) General urine analysis. • 6) Blood biochemistry. • 7) ECG. • 8) EEG and pharmaco-EEG. Physical exams and testing results were registered by a research physician in the MRs and were analyzed by statistical methods.

epilepsy patients = test: Clinical trials in epilepsy patients and volunteers (Example 1); type: in vivo, human
Method: Clinical trials involving administration of sodium bicyclo-[2.2.2]-octane-2-carboxylate were performed on 30 epilepsy patients and 20 volunteers in two clinics in Moscow. […] Classification of the patients was done in accordance with International Classification of Epilepsy and Epileptic Syndromes (ILAE, 1989). Some of the subjects also suffered from addictive disorders (alcoholism, drug addiction). In 73% of trial subjects, sodium bicyclo-[2.2.2]-octane-2-carboxylate administration reduced the frequency, intensity, and duration of epileptic seizures. […] It normalized cerebral blood circulation and increased the sympathetic tonus of the patients. […] The following were used to assess trial subjects: • Visual checkup • EEG • CT • MRT • Clinical blood and urine tests • general blood test • biochemical blood test • general urine tests • Inspection and checkup of organs and systems: • respiratory system • cardiovascular system • alimentary system • urinary system • Neurological status • Concurrent disease status.

adult epilepsy patients [2] = test: General blood work before and after treatment (Example 2, safety); type: in vivo, human
Method: (§2) At the start of sodium bicyclo-[2.2.2]-octane-2-carboxylate protocol, all patients began receiving sodium bicyclo-[2.2.2]-octane-2-carboxylate at 100 mg four times a day. If the clinical effect was absent by day 14, the dose of Sodium bicyclo-[2.2.2]-octane-2-carboxylate was increased to 150 mg. Patients with various forms of epilepsy were selected for the study (Table 2).
as §1
(§3) The effective therapeutic dose was determined as 400 mg per day in 60% of the patients, and 600 mg per day in the remaining 40%. Safety aspects of sodium bicyclo-[2.2.2]-octane-2-carboxylate were evaluated during the treatment and after the treatment by monitoring the clinical and laboratory parameters.
(§4) Before-before Sodium bicyclo-[2.2.2]-octane-2-carboxylate treatment After-after Sodium bicyclo-[2.2.2]-octane-2-carboxylate treatment. No statistically significant differences in any other parameters before and after Sodium bicyclo-[2.2.2]-octane-2-carboxylate treatment were detected.

adult epilepsy patients [3] = test: ECG recording during the study (Example 2); type: in vivo, human; details: patients with extrasystolia and tachycardia
Source text: as §1, with “methods. ECGs were recorded before the beginning of the treatment, during the course of the study (on a regular basis), and immediately after the study had been completed. […] In the patients with extrasystolia and tachycardia, extrasystolia was not observed by the end of the first treatment month, while the heart rate decreased on average from 88/min to 80/min. In the patients with bradycardia, sinus rhythm dropped further.” for “methods.”

adult epilepsy patients [4] = test: Dysphoria and general condition in the study patients (Example 2); type: in vivo, human
Method: During each scheduled visit and at the completion of the study, complete physical examination of each patient was performed. Physical exams included patients' general condition, examinations of the skin, ENT, lungs, heart, stomach, lymph nodes, central nervous system, etc. Valid data obtained before beginning of Sodium bicyclo-[2.2.2]-octane-2-carboxylate treatment was entered in appropriate sections of MRs. The data collected during the treatment (including the observed side effects) was entered in the Brief Description sections of the MRs. […] This effect correlated with disappearance of alcohol addiction.

adult epilepsy patients [5] = test: Blood chemistry before and after treatment (Example 2, safety); type: in vivo, human
Method: as §2, §1, §3, §4

adult epilepsy patients [6] = test: Randomized open-controlled study, add-on to base therapy: frequency and severity of epileptic seizures (Example 2); type: in vivo, human
Method: The study of sodium bicyclo-[2.2.2]-octane-2-carboxylate as an addition to a base therapy was conducted in the group of adult epilepsy patients. Sodium bicyclo-[2.2.2]-octane-2-carboxylate was administered during 10 weeks. Thirty patients in both hospitals (twenty-six males and four females) were included in the studies.
Base therapy was administered in accordance with recommendations by the International Anti-epileptic League (1989). During the study, the patients continued to receive pathogenetic treatment. Medication names, doses and the duration of any treatment were registered in patients' medical records (MR). The patients continued receiving their standard prescribed medications and were not switched to a different drug at any time during the study.
During the introductory period of 7 to 10 days, the patients were examined; base therapy scheme was being finalized and was described in a standard protocol. In accordance with the protocol, the patients were screened for inclusion/exclusion factors. Only those patients who signed an informed consent and who satisfied the inclusion criteria were included in the study. The frequency of epileptic seizures in patients receiving pre-sodium bicyclo-[2.2.2]-octane-2-carboxylate base therapy varied from 1 to 16 times a month.
as §2, §1
To evaluate treatment efficacy, the frequency and severity of epileptic seizures were monitored. […] In the majority of patients suffering from partial epilepsy, seizures became less severe and occurred less frequently. The patients reported feeling better, with improvement of mood, work efficiency, and sleep quality. […]

[7] = average, after treatment (before: 4.75)
[8] = deviation after vs before treatment

O=C([O-])C1CC2CCC1CC2.[Na+] (centres unmarked) [Sodium bicyclo-[2.2.2]-octane-2-carboxylate]
EEG parameters (focus of pathological activity) (adult epilepsy patients [1]): 151.5 μV
melting point: 84 to 86 °C
trial subjects with reduced frequency, intensity, and duration of epileptic seizures (epilepsy patients; 30 epilepsy patients and 20 volunteers, two clinics): 73%
side effects in human clinical trials (epilepsy patients; human clinical trials): without significant negative side effects
Color Index, After (adult epilepsy patients [2]; average, after treatment (before: 0.895)): 0.928
Eosinophiles (%), After (adult epilepsy patients [2]; average, after treatment (before: 2.53)): 2.53%
Monocytes (%), After (adult epilepsy patients [2]; average, after treatment (before: 3.0)): 2.8%
Erythrocytes, After (adult epilepsy patients [2]; [7]): 4.79 10^12/L
ESR, After (adult epilepsy patients [2]; average, after treatment (before: 7.3)): 5.2 mm
Leukocytes, After (adult epilepsy patients [2]; average, after treatment (before: 7.9)): 7.47 10^9/L
Lymphocytes (%), After (adult epilepsy patients [2]; average, after treatment (before: 20.9)): 21.1%
Neutrophiles (%), After (adult epilepsy patients [2]; average, after treatment (before: 72.7)): 71.2%
Hemoglobin, After (adult epilepsy patients [2]; average, after treatment (before: 143.4), in g/L (unit assumed)): 140.13
Platelets, After (adult epilepsy patients [2]; average, after treatment (before: 205.5), in 10^9/L (unit assumed)): 230.3
Color Index, % dev. (adult epilepsy patients [2]; [8]): 3.7%
ESR, % dev. (adult epilepsy patients [2]; [8]): 28.8%
Eosinophiles, % dev. (adult epilepsy patients [2]; [8]): 0%
Erythrocytes, % dev. (adult epilepsy patients [2]; [8]): 1.48%
Hemoglobin, % dev. (adult epilepsy patients [2]; [8]): 2.3%
Leukocytes, % dev. (adult epilepsy patients [2]; [8]): 5.95%
Lymphocytes, % dev. (adult epilepsy patients [2]; [8]): 0.94%
Monocytes, % dev. (adult epilepsy patients [2]; [8]): 6.7%
Neutrophiles, % dev. (adult epilepsy patients [2]; [8]): 2.06%
Platelets, % dev. (adult epilepsy patients [2]; [8]): 12.07%
effects on the blood counts and blood biochemistry (adult epilepsy patients [2]; during and after the treatment): No unfavorable effects
changes in blood and urine tests (adult epilepsy patients [2]; summary of the study): did not cause any changes
heart rate (adult epilepsy patients [3]; average, decreased from 88/min): 80 min⁻¹
extrasystolia (adult epilepsy patients [3]; by the end of the first treatment month): not observed
patients' behavior and the functions of major organs and systems (adult epilepsy patients [4]; during 10 weeks of treatment): not negatively affected
cases with effective treatment of dysphoria or dysphoria-like conditions (adult epilepsy patients [4]; of all cases): 93.3%
dysphoria and paroxysmal activity on EEG (adult epilepsy patients [4]; patients who suffered from alcohol addiction in the past, after 1.5 month of treatment): disappeared or decreased
Glucose, After (adult epilepsy patients [5]; [7]): 4.48 mmol/L
General bilirubin, After (adult epilepsy patients [5]; average, after treatment (before: 14.3)): 11.5 µmol/L
ACT, After (adult epilepsy patients [5]; average, after treatment (before: 45.1)): 24.6
ALT, After (adult epilepsy patients [5]; average, after treatment (before: 46.2)): 21.5
Creatinin, after (adult epilepsy patients [5]; average, after treatment (before: 70.5)): 69.4 µmol/L
General Protein, After (adult epilepsy patients [5]; average, after treatment (before: 75.5)): 77.4 g/L
ACT, % dev. (adult epilepsy patients [5]; [8]): 45.4%
ALT, % dev. (adult epilepsy patients [5]; [8]): 53.5%
Creatinin, % dev. (adult epilepsy patients [5]; [8]): 1.6%
General Protein, % dev. (adult epilepsy patients [5]; [8]): 2.5%
General bilirubin, % dev. (adult epilepsy patients [5]; [8]): 19.6%
Glucose, % dev. (adult epilepsy patients [5]; [8]): 5.7%
effective therapeutic dose (adult epilepsy patients [6]; in 60% of the patients): 400 mg per day
effective therapeutic dose (adult epilepsy patients [6]; in the remaining 40% of the patients): 600 mg per day
patients with decrease in seizure frequency (number) (adult epilepsy patients [6]; of 30 patients): 22 patients
patients with decrease in seizure frequency (percent) (adult epilepsy patients [6]; of 30 patients): 73.3%
